In patent US20220117968A1, “THIENO[2,3-D)PYRIMIDINES AND BENZOFURO(3,2-D)PYRIMIDINES AS ANTIMICROBIAL AGENTS” (Saint Louis University, priority 2017, published 2022):
Values after ≈ are worked out from the molar mass of the structure shown.

Tested on: WT Mtb Erdman strain
Experiment: Microplate Alamar Blue Assay (MABA)
Format: cell-based
Conditions: Mycobacterium tuberculosis, Middlebrook 7H9 media, 7 days at 37° C., resazurin 24 hours; for MIC50: concentration that inhibits mycobacterial survival by 50%, read-out: MABA MIC50; for MIC90: concentration that inhibits mycobacterial survival by 90%, read-out: MABA MIC90

Cc1cc2c(NC3CC3)nc(C(F)(F)C(F)(F)F)nc2s1 [Example 1542, N-Cyclopropyl-6-methyl-2-(perfluoroethyl)thieno[2,3-d]pyrimidin-4-amine]
MIC50: 5.28 µM (≈ 1.71 µg/mL) | MIC90: 10.1 µM (≈ 3.27 µg/mL)

C=C(C)c1cc2c(NC3CC3)nc(CC)nc2s1 [Example 1154, N-Cyclopropyl-2-ethyl-6-(prop-1-en-2-yl)thieno[2,3-d]pyrimidin-4-amine]
MIC50: 45.9 µM (≈ 11.9 µg/mL) | MIC90: > 50 µM

Cc1cc2c(NC3CC3)nc(Cc3ccc(F)cc3)nc2s1 [Example 1063, N-Cyclopropyl-2-[(4-fluorophenyl)methyl]-6-methyl-thieno[2,3-d]pyrimidin-4-amine]
MIC50: 21 µM (≈ 6.58 µg/mL) | MIC90: 41.7 µM (≈ 13.1 µg/mL)

CCc1nc(NCCCc2ccccc2)c2oc3ccccc3c2n1 [Example 1300, 2-Ethyl-N-(3-phenylpropyl)benzofuro[3,2-d]pyrimidin-4-amine]
MIC50: 0.164 µM (≈ 0.0544 µg/mL) | MIC90: 0.389 µM (≈ 0.129 µg/mL)

CCc1nc(NCc2ccccn2)c2cc(C)sc2n1 [Example 1308, 2-Ethyl-6-methyl-N-(2-pyridylmethyl)thieno[2,3-d]pyrimidin-4-amine]
MIC50: 21.6 µM (≈ 6.14 µg/mL) | MIC90: 31.6 µM (≈ 8.99 µg/mL)

FC(F)(F)C(F)(F)c1nc(NCCCc2ccccc2)c2ccsc2n1 [Example 1539, 2-(1,1,2,2,2-Pentafluoroethyl)-N-(3-phenylpropyl)thieno[2,3-d]pyrimidin-4-amine]
MIC50: 4.9 µM (≈ 1.9 µg/mL) | MIC90: 7.36 µM (≈ 2.85 µg/mL)

CCCCNc1nc(C(F)(F)F)nc2sc(C)cc12 [Example 1544, N-Butyl-6-methyl-2-(trifluoromethyl)thieno[2,3-d]pyrimidin-4-amine]
MIC50: 1.14 µM (≈ 0.33 µg/mL) | MIC90: 3.69 µM (≈ 1.07 µg/mL)

CCc1nc(NCCc2ccc(Cl)cc2Cl)c2cc(C)sc2n1 [Example 1307, N-[2-(2,4-Dichlorophenyl)ethyl]-2-ethyl-6-methylthieno[2,3-d]pyrimidin-4-amine]
MIC50: 0.526 µM (≈ 0.193 µg/mL) | MIC90: 1.18 µM (≈ 0.432 µg/mL)

Cc1nc(NCc2ccccc2)c2c(C)c(C)sc2n1 [Example 0795, N-Benzyl-2,5,6-trimethylthieno[2,3-d]pyrimidin-4-amine]
MIC50: 25.4 µM (≈ 7.2 µg/mL) | MIC90: 28.4 µM (≈ 8.05 µg/mL)

CCc1nc(NC2CC2)c2oc3ccccc3c2n1 [Example 1142, N-cyclopropyl-2-ethyl-benzofuro[3,2-d]pyrimidin-4-amine]
MIC50: 8.37 µM (≈ 2.12 µg/mL) | MIC90: 24.8 µM (≈ 6.28 µg/mL)

CCCCNc1nc(CC)nc2sccc12 [Example 1176, N-butyl-2-ethyl-thieno[2,3-d]pyrimidin-4-amine]
MIC50: 3.8 µM (≈ 0.894 µg/mL) | MIC90: 14.4 µM (≈ 3.39 µg/mL)

Cc1cccc(-c2nc(NCCCc3ccccc3)c3c(C)csc3n2)n1 [Example 1709, 5-methyl-2-(6-methylpyridin-2-yl)-N-(3-phenylpropyl)thieno[2,3-d]pyrimidin-4-amine]
MIC50: 2.56 µM (≈ 0.959 µg/mL) | MIC90: 19.7 µM (≈ 7.38 µg/mL)

Cc1nc(Nc2ccccc2)c2c(C)c(C)sc2n1 [Example 0797, 2,5,6-Trimethyl-N-phenylthieno[2,3-d]pyrimidin-4-amine]
MIC50: > 50 µM | MIC90: > 50 µM

CCCCNc1nc(C(F)(F)C(F)(F)F)nc2sc(C)cc12 [Example 1546, N-Butyl-6-methyl-2-(perfluoroethyl)thieno[2,3-d]pyrimidin-4-amine]
MIC50: 11.2 µM (≈ 3.8 µg/mL) | MIC90: 12.4 µM (≈ 4.21 µg/mL)

CCc1nc(NCCCc2ccccc2)c2cc(C)sc2n1 [Example 1023, 2-Ethyl-6-methyl-N-(3-phenylpropyl)thieno[2,3-d]pyrimidin-4-amine]
MIC50: 0.0266 µM (≈ 0.00828 µg/mL) | MIC90: 0.108 µM (≈ 0.0336 µg/mL)

CCc1nc(NCCCC(F)(F)F)c2cc(C)sc2n1 [Example 1020, 2-Ethyl-6-methyl-N-(4,4,4-trifluorobutyl)thieno[2,3-d]pyrimidin-4-amine]
MIC50: 0.116 µM (≈ 0.0352 µg/mL) | MIC90: 0.163 µM (≈ 0.0494 µg/mL)

CCc1nc(NC2CC2)c2cc(-c3ccccc3)sc2n1 [Example 1150, N-Cyclopropyl-2-ethyl-6-phenyl-thieno[2,3-d]pyrimidin-4-amine]
MIC50: 21.1 µM (≈ 6.23 µg/mL) | MIC90: 23.1 µM (≈ 6.82 µg/mL)

CCc1nc(NCCc2ccccc2)c2cc(C)sc2n1 [Example 1306, 2-Ethyl-6-methyl-N-phenethylthieno[2,3-d]pyrimidin-4-amine]
MIC50: 0.125 µM (≈ 0.0372 µg/mL) | MIC90: 0.183 µM (≈ 0.0544 µg/mL)
